Source: article PMC9354954, “Assessing Bioavailability and Bioactivity of 4-Hydroxythiazolidine-2-Thiones, Newly Discovered Glucosinolate Degradation Products Formed During Domestic Boiling of Cabbage” (Frontiers in Nutrition, 2022)

Experiments:
[1] = Antioxidant potential, ABTS assay; conditions: compared to compound free blank
Description: (§1) To evaluate the potential of allyl HTT and 4-MSOB HTT to act as antioxidants, ABTS and DPPH were used as model radicals and Trolox as reference antioxidants based on Shalaby and Shanab ([28]). In total, 1.5 mg of ABTS and 0.26 mg potassium peroxodisulfate were dissolved in 4 mL of pure water and incubated in the dark overnight at room temperature. Afterward, 36 mL of MeOH were added to obtain the fresh ABTS working solution. In the case of the DPPH assay, 1.1 mg of DPPH were dissolved in 4 mL of MeOH and incubated for 2 h in the dark at 4°C, followed by the addition of 36 mL of MeOH to obtain the fresh DPPH working solution. Standards of Trolox, allyl HTT, and 4-MSOB HTT were prepared in water/MeOH (90/10, v/v%) at concentrations in the range of 6.25–100 μM. To detect the antioxidant potential, 100 μL of standard or water/MeOH (90/10, v/v%) as control were added to 1,000 μL of ABTS or DPPH working solution, and the extinction was measured directly after mixing and after 6 min of incubation in the dark with a spectrometer (UviLine 9100, Schott Instruments, Mainz, Germany) at 734 nm in the case of ABTS assay and 515 nm in DPPH assay (each prepared as duplicate). The results are reported as mean ± SD of the reduction of the extinction compared to the control.

[2] = Antioxidant potential, DPPH assay; conditions: compared to compound free blank
Description: as §1

GSK-3β = system: GSK-3β; parameters: method as in PMID 31553649; conditions: read-out: IC50 (50% inhibition) to inhibit GSK-3β; cited from earlier work
GSK-3α = system: GSK-3α; parameters: method as in PMID 31553649; conditions: read-out: IC50 (50% inhibition) to inhibit isoform GSK-3α; cited from earlier work
[3] = parameters: method as in doi:10.1002/14356007.a09_001; conditions: cited from earlier work
[4] = parameters: method as in PMID 8000299, PMID 9865427; conditions: 10–12 h urine after consumption of horseradish or a mustard paste; cited from earlier work
HepG2 = system: HepG2; parameters: method as in PMID 14578469; conditions: HepG2, 72 h of incubation time; read-out: IC50 (50% inhibition of cell growth); cited from earlier work
[5] = system: NAD(P)H dehydrogenase quinone 1 (NQO1); experiment: NQO1 activity in HCT116 pTRAF cells; type: cell-based; conditions: 2 μM, 24 h, negative control 51 ± 5
Description: (§2) The effect of allyl HTT or 4-MSOB HTT on NAD(P)H dehydrogenase quinone 1 (NQO1) activity was tested for HepG2 cells and HCT116 pTRAF cells. HCT116 pTRAF is a cell line that was transfected with the pTRAF^Nrf2/HIF/NFκB [Johansson et al. ([29])], as described by Kipp et al. ([30]). HCT116 pTRAF cells were cultivated in McCoy's 5A medium + 1% penicillin/streptomycin + 10% FBS + 1% GlutaMAX + 0.2 mg/mL hygromycin B. HepG2 cells in RPMI medium were seeded in a 6-well-plate (sterile, Sarsted, Nümbrecht, Germany) with a density of 350,000 cells/well, and HCT116 pTRAF cells in culture medium without hygromycin B with a density of 100,000 cells/well. After 48 h of incubation under cell culture conditions, the medium was exchanged with the fresh medium as a negative control and a medium with concentrations of 1 μM and 100 μM of allyl HTT or 4-MSOB HTT. Medium containing 2 μM auranofin was used as a positive control. After 24 h of incubation under cell culture conditions, NQO1 activity was analyzed according to Müller et al. ([31]), and the results were reported as mean ± SD. Additionally, the t-test for independent samples per variable was performed to test if concentration-dependent differences exist.

[6] = system: NAD(P)H dehydrogenase quinone 1 (NQO1); experiment: NQO1 activity in HepG2 cells; type: cell-based, human; conditions: 2 μM, 24 h, negative control 145 ± 8
Description: as §2

[7] = system: Nrf2 target gene expression in alveolar macrophages and bronchial epithelial cells; conditions: intervention with 150 μM; cited from earlier work
[8] = system: cultured hepatocytes from human liver transplants; conditions: range of 10 μM and 50 μM; cited from earlier work
endothelial cells = conditions: cited from earlier work
[9] = cited from earlier work

Question: Which results are given for `Cc1c(C)c2c(c(C)c1O)CCC(C)(C(=O)O)O2` (racemic) [Trolox, (±)-6-hydroxy-2,5,7,8-tetramethylchromane-2-carboxylic acid, reference compound]?
Answer: Relative signal reduction of the extinction value of the radical ABTS ([1]; 6.25 µM): 1.3 ± 0.4%; Relative signal reduction of the extinction value of the radical ABTS ([1]; 12.5 µM): 1.9 ± 0.4%; Relative signal reduction of the extinction value of the radical ABTS ([1]; 25 µM): 9.3 ± 0.5%; Relative signal reduction of the extinction value of the radical ABTS ([1]; 50 µM): 16.5 ± 0.4%; Relative signal reduction of the extinction value of the radical ABTS ([1]; 100 µM): 31.2 ± 0.4%; Relative signal reduction of the extinction value of the radical DPPH ([2]; 6.25 µM): 0.8 ± 0.3%; Relative signal reduction of the extinction value of the radical DPPH ([2]; 12.5 µM): 2.8 ± 0.3%; Relative signal reduction of the extinction value of the radical DPPH ([2]; 25 µM): 3.5 ± 0.4%; Relative signal reduction of the extinction value of the radical DPPH ([2]; 50 µM): 8.8 ± 0.6%; Relative signal reduction of the extinction value of the radical DPPH ([2]; 100 µM): 17.5 ± 1.5%

Question: For `OC1(c2ccccc2)CSC(=S)N1Cc1ccncc1` (stereo not shown) [COB-187], which IC50 (GSK-3β) is on record?
Answer: Its IC50 is 0.011 µM.

Question: And the IC50 (GSK-3α)?
Answer: Its IC50 is 0.022 µM.

Question: With `CN1CCSC1=S` [N-methyl-2-thiazolidinethione] as the compound, how does the toxicity [3] read?
Answer: The toxicity was “low toxicity”.

Question: Which “recovery of formed allyl ITC metabolites in urine” value [4] does the source give for `C=CCN=C=S` [allyl ITC, allyl isothiocyanate] here?
Answer: The value was 42–54%.

Question: And the IC50 (HepG2)?
Answer: Its IC50 is 36 µM.

Question: What does the source list for `CC(=O)OC[C@H]1O[C@@H]([S-])[C@H](OC(C)=O)[C@@H](OC(C)=O)[C@@H]1OC(C)=O.CCP(CC)CC.[Au+]` [auranofin, 1-thio-β-D-glucopyranosatotriethyl phosphine gold-2,3,4,6-tetraacetate]?
Answer: NQO1 activity [5]: 114 ± 7 mU/mg protein; NQO1 activity [6]: 153 ± 4 mU/mg protein

Question: Which “stimulation in Nrf2 target gene expression” value [7] does the source give for `C[S+]([O-])CCCCN=C=S` (stereo not shown) [sulforaphane] here?
Answer: The value was “no stimulation”.

Question: What about the cytotoxicity [8] of the same compound?
Answer: The cytotoxicity was “no significant cytotoxicity”.

Question: And the “concentrations inducing apoptosis and cytotoxicity” value (endothelial cells)?
Answer: The value was 20 to 40 µM.

Question: And the bioavailability [9]?
Answer: The bioavailability was “approximately 40%”.

Question: What about the IC50 (HepG2) of the same compound?
Answer: The IC50 was 13 µM.
